Values joined by “and” are separate entries in the source; they are usually repeats but may differ in a detail not shown here. Equal entries are not always repeated. Toxic doses and inconclusive results are not listed. Rule as the data show it: active = T/C of 150% or more; inactive = T/C below 125%.
Tested on: L1210 leukemia ip in BDF1 mice, survival T/C
Test: NCI In Vivo Anticancer Drug Screen. Data for tumor model L1210 Leukemia (intraperitoneal) in B6D2F1 (BDF1) mice
Settings: endpoint: mean survival time, higher = longer survival
Outline: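 Transplantable tumor model; survival measured in treated vs vehicle control mice. Value = treated/control.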

[1] = dose: 100.0 mg/kg/injection, schedule: Q04DX003 (ip), vehicle: Klucel (hydroxypropylcellulose) (HPC)
[2] = dose: 200.0 mg/kg/injection, schedule: Q04DX003 (ip), vehicle: Klucel (hydroxypropylcellulose) (HPC)
[3] = dose: 400.0 mg/kg/injection, schedule: Q04DX003 (ip), vehicle: Klucel (hydroxypropylcellulose) (HPC)
[4] = dose: 100.0 mg/kg/injection, schedule: Q04DX003 (ip), vehicle: saline with Tween-80
[5] = dose: 200.0 mg/kg/injection, schedule: Q04DX003 (ip), vehicle: saline with Tween-80
[6] = dose: 400.0 mg/kg/injection, schedule: Q04DX003 (ip), vehicle: saline with Tween-80
[7] = dose: 100.0 mg/kg/injection, schedule: Q04DX003 (ip), vehicle: saline

Measured: T/C

[F][Sn]([c]1ccc(Cl)cc1)([c]1ccc(Cl)cc1)[c]1ccc(Cl)cc1
inactive: dose: 0.18 mg/kg/injection, schedule: Q04DX003 (ip), vehicle: other 97 % of control | dose: 0.37 mg/kg/injection, schedule: Q04DX003 (ip), vehicle: other 101 % of control | dose: 0.75 mg/kg/injection, schedule: Q04DX003 (ip), vehicle: other 93 % of control | dose: 1.5 mg/kg/injection, schedule: Q04DX003 (ip), vehicle: other 100 % of control

C=CCCN(c1ccc(C(=O)OCC)cc1)S(=O)(=O)c1ccc(C)cc1
inactive: dose: 50.0 mg/kg/injection, schedule: Q01DX001 (ip), vehicle: carboxymethylcellulose (CMC) 102 % of control | dose: 100.0 mg/kg/injection, schedule: Q01DX001 (ip), vehicle: carboxymethylcellulose (CMC) 100 % of control | dose: 200.0 mg/kg/injection, schedule: Q01DX001 (ip), vehicle: carboxymethylcellulose (CMC) 107 % of control | dose: 400.0 mg/kg/injection, schedule: Q01DX001 (ip), vehicle: carboxymethylcellulose (CMC) 96 % of control

CCOC(=O)/C=C(/C)OC(C)=O
inactive: dose: 100.0 mg/kg/injection, schedule: Q01DX009 (ip), vehicle: Klucel (hydroxypropylcellulose) (HPC) 100 % of control | [1] 101 % of control | dose: 200.0 mg/kg/injection, schedule: Q01DX009 (ip), vehicle: Klucel (hydroxypropylcellulose) (HPC) 98 % of control | [2] 95 % of control | dose: 400.0 mg/kg/injection, schedule: Q01DX009 (ip), vehicle: Klucel (hydroxypropylcellulose) (HPC) 100 % of control | [3] 95 % of control

CC(C)C(C)C(N)C(=O)O (stereo not given)
inactive: dose: 100.0 mg/kg/injection, schedule: Q01DX001 (ip), vehicle: other 101 % of control | dose: 200.0 mg/kg/injection, schedule: Q01DX001 (ip), vehicle: other 95 % of control | dose: 400.0 mg/kg/injection, schedule: Q01DX001 (ip), vehicle: other 106 % of control

COC(=O)CSC(=S)N(C)C
inactive: [4] 91 % of control | [5] 91 % of control | [6] 94 % of control

COC(=O)C1(C)CCC(c2ccc(OC)cc2)C(CC(=O)O)C1=O (stereo not given)
inactive: dose: 100.0 mg/kg/injection, schedule: Q01DX009 (ip), vehicle: saline 93 % of control | [7] 95 % of control | dose: 200.0 mg/kg/injection, schedule: Q04DX003 (ip), vehicle: saline 98 % of control | dose: 400.0 mg/kg/injection, schedule: Q01DX009 (ip), vehicle: saline 90 % of control | dose: 400.0 mg/kg/injection, schedule: Q04DX003 (ip), vehicle: saline 93 % of control

CCCCCCCCCCCc1cc(=O)n(-c2ccccc2)n1C
inactive: dose: 12.5 mg/kg/injection, schedule: Q04DX003 (ip), vehicle: saline with Tween-80 92 % of control | dose: 25.0 mg/kg/injection, schedule: Q04DX003 (ip), vehicle: saline with Tween-80 98 % of control | dose: 50.0 mg/kg/injection, schedule: Q04DX003 (ip), vehicle: saline with Tween-80 95 % of control | [5] 102 % of control

C1CCC(CCC(CCC2CCCCC2)CCC2CCCCC2)CC1
inactive: dose: 100.0 mg/kg/injection, schedule: Q01DX001 (ip), vehicle: Klucel (hydroxypropylcellulose) (HPC) 89 % of control | dose: 200.0 mg/kg/injection, schedule: Q01DX001 (ip), vehicle: Klucel (hydroxypropylcellulose) (HPC) 91 % of control | dose: 400.0 mg/kg/injection, schedule: Q01DX001 (ip), vehicle: Klucel (hydroxypropylcellulose) (HPC) 91 % of control

CSC(S(C)(=O)=O)S(C)(=O)=O
inactive: [4] 90 % of control | [5] 96 % of control | [6] 98 % of control

CC1CN1CCC(=O)Nc1ccc(Cl)c(Cl)c1 (stereo not given)
inactive: dose: 50.0 mg/kg/injection, schedule: Q04DX003 (ip), vehicle: Klucel (hydroxypropylcellulose) (HPC) 97 % of control | [1] 105 % of control | [2] 100 % of control | [3] 106 % of control

CCOC(=O)/C=C/C(=O)O.[Co]
inactive: dose: 12.5 mg/kg/injection, schedule: Q04DX003 (ip), vehicle: saline 114 % of control | dose: 25.0 mg/kg/injection, schedule: Q04DX003 (ip), vehicle: saline 118 % of control | dose: 50.0 mg/kg/injection, schedule: Q04DX003 (ip), vehicle: saline 116 % of control | [7] 118 % of control and 121 % of control

O=C(Nc1ccccc1)Oc1c(Cl)c(Cl)c(Cl)c(Cl)c1Cl
inactive: dose: 100.0 mg/kg/injection, schedule: Q04DX002 (ip), vehicle: Klucel (hydroxypropylcellulose) (HPC) 98 % of control | dose: 200.0 mg/kg/injection, schedule: Q04DX002 (ip), vehicle: Klucel (hydroxypropylcellulose) (HPC) 104 % of control

Source: PubChem BioAssay AID248 (DTP/NCI, 2004)
